Measurements published in PMC11620517, “Novel hydrazone compounds with broad-spectrum antiplasmodial activity and synergistic interactions with antimalarial drugs” (Antimicrobial Agents and Chemotherapy, 2024).
Values joined by “and” are separate entries in the source; they are usually repeats but may differ in a detail not shown here. Equal entries are not always repeated. Where two headings read alike, the source gives them in different places.

Key:
[1] = test system: primary primate hepatocytes; assay: hepatocyte toxicity in the P. cynomolgi liver-stage assay; type: cell-based
Protocol: (§1) Primary primate hepatocytes were seeded in 384-well plates and used within 2–4 days ([56]). P. cynomolgi B strain parasites were inoculated and developed into hypnozoites and schizonts. CB compounds were tested in 8-point, threefold serial dilutions (100 µM to […]) for both prophylactic (4 days starting with sporozoite addition) and radical cure (4 days starting day 4 post-inoculation) modalities ([56][–][60]). The Operetta CLS imaging system and Harmony Software 4.9 (Perkin Elmer, Waltham, MA, USA) analyzed the plates, and the percentage of inhibition (PI) was calculated in Python using equation (1), where parasitic quantities (hypnozoite and schizont counts) were normalized to the negative control ([57]). Each plate included negative (DMSO) and positive (KDU691, maduramicin, tafenoquine) controls ([58]). IC50 values were determined using an 8-point, threefold dilution format and a Python-adapted grid algorithm for fitting PI to a four-parameter logistic function ([61]).

[2] = test system: P. berghei ookinete development (Ookluc parasites); assay: P. berghei ookinete luciferase inhibition assay; type: cell-based, Plasmodium berghei; conditions: for IC50: 24 hours at 19°C, luminescence, read-out: IC50 (ookinete development)
Protocol: Mice were pretreated with phenylhydrazine [6 mg/mL, intraperitoneal injection (IP)] 3 days before intravenous injection (IV) infection with P. berghei Ookluc parasites ([19], [62]). Once parasitemia exceeded 15%, the mice received PYR (1 mg/mL, IP) ([19], [62]). Twenty-four hours after PYR treatment, infected mice were assessed for at least 10 exflagellations before blood was collected by heart puncture ([19], [62]). Infected blood (1:20 dilution) was incubated with 8-point serial dilutions (2.5–75 µM) of CB compounds for 24 hours at 19°C with gentle shaking ([62], [64]). Relative luminescence units (RLU) of mature ookinetes were measured using the Promega Nano-Glo Luciferase Assay System Kit and a SpectraMax M3 Microplate Reader (Molecular Devices, San Jose, CA, USA) after 3 minutes. Giemsa blood smears confirmed ookinetes.

[3] = test system: P. cynomolgi hypnozoites and hepatic schizonts; assay: P. cynomolgi liver-stage inhibition assay; type: cell-based, Plasmodium cynomolgi; conditions: for IC50: Plasmodium cynomolgi, prophylactic drug treatment mode
Protocol: as §1
PI = 100 ∗(1−(xy/Meanneg))

[4] = test system: recombinant P. berghei GST; assay: GST inhibition assay (CDNB); type: biochemical, Plasmodium berghei; conditions: 6-point 1–50 µM
Protocol: (§2) Enzymatic activities of recombinant GSTs were determined spectrophotometrically using the chromogenic substrate 1-chloro-2,4-dinitrobenzene (CDNB). Recombinant GST (0.35 mg/mL) was mixed with 1 mM CDNB in 100 mM HEPES. Stock solutions (10 mM) of the CB compounds and hemin were prepared in 100% dimethyl sulfoxide (DMSO) and then diluted at 0.5% DMSO ([14]). Each inhibitor has six concentrations ranging from 1 to 50 µM. The reaction was initiated with 1 mM glutathione (GSH) after 15 minutes. Absorbance change at 340 nm was measured for 1 hour. The slope was converted to micromole per minute using Beer’s equation and the extinction coefficient for the product S-(2,4-dinitrophenyl)glutathione (ε340 nm = 9.6 mM^–1 cm^–1) ([14]). The assay was validated using human placenta GST (#G8642) as a positive control.

[5] = test system: P. falciparum oocyst formation in Anopheles stephensi mosquitoes; assay: P. falciparum oocyst inhibition assay (SMFA); type: in vivo, Plasmodium falciparum; conditions: for Median (oocysts) / Median I % / Prevalence % / Prevalence I %: pooled from two representative experiments; for oocyst formation inhibition: midguts dissected 8 days after feeding
Protocol: As previously described, P. falciparum infections were performed using SMFA with NF54 gametocyte cultures diluted to 0.3% stage V gametocytemia ([62]). Infected blood (O+ human 45% hematocrit in serum) was offered to mosquitoes for 30 minutes, and engorged mosquitoes were maintained on a 10% corn syrup solution supplemented by four concentrations of CB compounds (1, 2.5, 5, and 10 µM) at […] ([63]), with DMSO serving as a control. Eight days post-infection, mosquito midguts were dissected and stained with 0.2% mercurochrome for 30 minutes, and oocysts were quantified under a light microscope ([63]).

human GST = biological target: T1, human GST (Homo sapiens, UniProt P08263); assay: GST inhibition assay (CDNB); type: biochemical; conditions: 6-point 1–50 µM
T1 construct: The open reading frames encoding PfGST, PbGST, and hGST were gene-synthesized; TEV cleavage site (C); Avitag (C); purchased InterRayBio, LLC; host or cells: E. coli BL21 (DE3)
T1 sequence (P08263 1-222): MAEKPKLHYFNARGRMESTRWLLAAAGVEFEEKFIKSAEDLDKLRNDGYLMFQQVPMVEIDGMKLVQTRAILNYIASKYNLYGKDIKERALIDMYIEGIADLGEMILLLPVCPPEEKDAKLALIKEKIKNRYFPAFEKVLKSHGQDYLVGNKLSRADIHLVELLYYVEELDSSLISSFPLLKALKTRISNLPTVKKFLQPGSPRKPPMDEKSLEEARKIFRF
Protocol: as §2

[6] = biological target: T2, recombinant P. falciparum GST (Plasmodium falciparum, UniProt Q8ILQ7); assay: GST inhibition assay (CDNB); type: biochemical; conditions: 6-point 1–50 µM
T2 construct: The open reading frames encoding PfGST, PbGST, and hGST were gene-synthesized; TEV cleavage site (C); Avitag (C); purchased InterRayBio, LLC; host or cells: E. coli BL21 (DE3)
T2 sequence (Q8ILQ7 1-211): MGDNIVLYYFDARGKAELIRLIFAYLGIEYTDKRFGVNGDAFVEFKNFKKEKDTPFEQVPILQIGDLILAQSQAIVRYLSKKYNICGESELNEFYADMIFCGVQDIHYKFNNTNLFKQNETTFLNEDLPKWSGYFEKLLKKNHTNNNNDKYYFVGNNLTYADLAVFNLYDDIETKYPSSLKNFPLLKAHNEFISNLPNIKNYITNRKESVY
Protocol: as §2

[7] = 1 μM compound, P. falciparum midgut infection in An. stephensi mosquitoes
[8] = 1 μM compound, infection prevalence in mosquitoes
[9] = 2.5 μM compound, P. falciparum midgut infection in An. stephensi mosquitoes
[10] = 2.5 μM compound, infection prevalence in mosquitoes
[11] = 2.5 μM, single experiments, read-out: % inhibition (mean)
[12] = 2.5 μM, single experiments, read-out: % inhibition (median)
[13] = 5 μM compound, P. falciparum midgut infection in An. stephensi mosquitoes
[14] = 5 μM compound, infection prevalence in mosquitoes
[15] = 5 μM, single experiments, read-out: % inhibition (mean)
[16] = 10 μM compound, P. falciparum midgut infection in An. stephensi mosquitoes
[17] = 10 μM compound, infection prevalence in mosquitoes

COc1cccc(/C=N/NC(=O)c2nc(-c3ccccc3)cc(-c3ccccc3)n2)c1O [CB-41]
Toxicity [1]: >10 µM
IC50 [2]: 8.4 µM
IC50 ([2]; Plasmodium berghei, 24 h): 16.6 µM
IC50 ([3]; read-out: Hypnozoite IC50): 8.7 µM
IC50 ([3]; read-out: Schizont IC50): 8.4 µM
IC50 ([3]; read-out: Total parasite IC50): 8.6 µM
antiplasmodial activity on liver stages ([3]; radical cure mode): did not show antiplasmodial activity
GST inhibition [4]: did not inhibit
Median oocyst # ([5]; 1 μM compound): 45
Mean oocyst # excluding zeros (Range) [5, 7]: 53 (0-136)
Prevalence [5, 8]: 85
inhibition at 1 µM ([5]; 1 μM compound, vs DMSO control, read-out: % inhibition (prevalence)): 14%
Median (oocysts) ([5]; 1 µM): 45
Median I % ([5]; 1 µM): 18%
Prevalence % ([5]; 1 µM): 85%
Prevalence I % ([5]; 1 µM): 14%
Mean oocyst # excluding zeros (Range) ([5]; 1 μM, single experiments): 53 (0-136) and 77 (0-156)
Median oocyst # ([5]; 1 μM, single experiments): 45 and 63
Median oocyst # ([5]; 2.5 μM compound): 44
Mean oocyst # excluding zeros (Range) [5, 9]: 51 (0-123)
Prevalence [5, 10]: 83
inhibition at 2.5 µM ([5]; 2.5 μM compound, oocyst number vs DMSO control, read-out: % inhibition (mean)): 2%
inhibition at 2.5 µM ([5]; 2.5 μM compound, oocyst number vs DMSO control, read-out: % inhibition (median)): 19%
inhibition at 2.5 µM ([5]; 2.5 μM compound, vs DMSO control, read-out: % inhibition (prevalence)): 17%
Median (oocysts) ([5]; 2.5 µM): 44
Median I % ([5]; 2.5 µM): 19%
Prevalence % ([5]; 2.5 µM): 83%
Prevalence I % ([5]; 2.5 µM): 17%
% inhibition (mean) ([5]; 2.5 μM, single experiments): 9%
% inhibition (median) ([5]; 2.5 μM, single experiments): 30%
Mean oocyst # excluding zeros (Range) ([5]; 2.5 μM, single experiments): 47 (0-92) and 55 (0-123) and 64 (0-156)
Median oocyst # ([5]; 2.5 μM, single experiments): 40 and 48
inhibition at 2.5 µM [5, 11]: 10%
inhibition at 2.5 µM [5, 12]: 26%
Median oocyst # ([5]; 5 μM compound): 32
Mean oocyst # excluding zeros (Range) [5, 13]: 49 (0-108)
Prevalence [5, 14]: 71
inhibition at 5 µM ([5]; 5 μM compound, oocyst number vs DMSO control, read-out: % inhibition (mean)): 6%
inhibition at 5 µM ([5]; 5 μM compound, oocyst number vs DMSO control, read-out: % inhibition (median)): 41%
inhibition at 5 µM ([5]; 5 μM compound, vs DMSO control, read-out: % inhibition (prevalence)): 28%
Median (oocysts) ([5]; 5 µM): 32
Median I % ([5]; 5 µM): 41%
Prevalence % ([5]; 5 µM): 71%
Prevalence I % ([5]; 5 µM): 28%
Mean oocyst # excluding zeros (Range) ([5]; 5 μM, single experiments): 45 (0-108) and 52 (0-107) and 70 (0-144)
inhibition at 5 µM [5, 15]: 15%
Median oocyst # ([5]; 10 μM compound): 35
Mean oocyst # excluding zeros (Range) [5, 16]: 44 (0-128)
Prevalence [5, 17]: 82
inhibition at 10 µM ([5]; 10 μM compound, oocyst number vs DMSO control, read-out: % inhibition (mean)): 15%
inhibition at 10 µM ([5]; 10 μM compound, vs DMSO control, read-out: % inhibition (prevalence)): 18%
Median (oocysts) ([5]; 10 µM): 35
Median I % ([5]; 10 µM): 36%
Prevalence % ([5]; 10 µM): 82%
Prevalence I % ([5]; 10 µM): 18%
% inhibition (prevalence) ([5]; 10 μM, single experiments): 45%
Mean oocyst # excluding zeros (Range) ([5]; 10 μM, single experiments): 37 (0-102) and 50 (0-128) and 59 (0-146)
Median oocyst # ([5]; 10 μM, single experiments): 27 and 44
inhibition at 10 µM ([5]; 10 μM, single experiments, read-out: % inhibition (prevalence)): 46%
median inhibition percentage ([5]; 1 to 10 µM): below 50%
prevalence inhibition percentage ([5]; 1 to 10 µM): below 50%
oocyst formation inhibition ([5]; 1 to 10 µM): inhibited midgut oocyst formation in a dose-dependent manner
GST inhibition (human GST): did not inhibit
GST inhibition [6]: did not inhibit

O=C(N/N=C/c1cc(Br)ccc1O)/C(=C/C=C/c1ccccc1)NC(=O)c1ccccc1 [CB-50]
Toxicity [1]: >10 µM
activity in ookinete formation ([2]; dose–response 2.5–75 µM): no activity
IC50 ([3]; read-out: Hypnozoite IC50): > 10 µM
IC50 ([3]; read-out: Schizont IC50): > 10 µM
IC50 ([3]; read-out: Total parasite IC50): > 10 µM
GST inhibition [4]: did not inhibit
Median oocyst # ([5]; 1 μM compound): 8
Mean oocyst # excluding zeros (Range) [5, 7]: 18 (0-95)
Prevalence [5, 8]: 81
Median (oocysts) ([5]; 1 µM): 8
Prevalence % ([5]; 1 µM): 82%
Prevalence ([5]; 1 μM, single experiments): 73 and 91 and 90
inhibition at 1 µM ([5]; 1 μM, single experiments, read-out: % inhibition (mean)): 48%
inhibition at 1 µM ([5]; 1 μM, single experiments, read-out: % inhibition (median)): 48%
Median oocyst # ([5]; 2.5 μM compound): 9
Mean oocyst # excluding zeros (Range) [5, 9]: 26 (0-103)
Prevalence [5, 10]: 74
Median (oocysts) ([5]; 2.5 µM): 9
Prevalence % ([5]; 2.5 µM): 74%
Prevalence ([5]; 2.5 μM, single experiments): 68 and 82 and 83
inhibition at 2.5 µM [5, 11]: 38%
inhibition at 2.5 µM [5, 12]: 48%
inhibition at 2.5 µM ([5]; 2.5 μM, single experiments, read-out: % inhibition (prevalence)): 5%
Median oocyst # ([5]; 5 μM compound): 7
Mean oocyst # excluding zeros (Range) [5, 13]: 15 (0-67)
Prevalence [5, 14]: 89
Median (oocysts) ([5]; 5 µM): 7
Prevalence % ([5]; 5 µM): 89%
Prevalence ([5]; 5 μM, single experiments): 87 and 90 and 92
inhibition at 5 µM [5, 15]: 19%
inhibition at 5 µM ([5]; 5 μM, single experiments, read-out: % inhibition (median)): 3%
Median oocyst # ([5]; 10 μM compound): 7
Mean oocyst # excluding zeros (Range) [5, 16]: 18 (0-74)
Prevalence [5, 17]: 74
Median (oocysts) ([5]; 10 µM): 7
Prevalence % ([5]; 10 µM): 74%
Prevalence ([5]; 10 μM, single experiments): 65 and 88 and 89
inhibition at 10 µM ([5]; 10 μM, single experiments, read-out: % inhibition (mean)): 52%
inhibition at 10 µM ([5]; 10 μM, single experiments, read-out: % inhibition (median)): 61%
oocyst formation inhibition ([5]; 1 to 10 µM): did not inhibit oocyst formation
GST inhibition (human GST): did not inhibit
GST inhibition [6]: did not inhibit
